Key:
pYStat3C328A = biological target: T1, pYStat3C328A (Homo sapiens, UniProt P40763, C328A); assay: EMSA with purified mutant pYStat3C328A; format: biochemical; details: 3 μM H182, 30 min
T1 construct: made in house; host or cells: E. coli BL21(DE3) TKB1 (inducible tyrosine kinase)
Text: (§1) This construct was used to generate the mutants, Stat3C328A, Stat3C426A, Stat3C468A, and Stat3C542S, as described in detail in Supplementary Information “Methods”.
(§2) The expression of un-phosphorylated and tyrosine phosphorylated His-tagged recombinant wtStat3 and mutant Stat3 proteins in BL21 (DE3) bacterial cells is described in detail in Supplementary Information “Methods”.
(§3) Given the MS data, we conducted site-directed mutagenesis analysis for the effects of Cys mutations (Cys-to-Ala or Cys-to-Ser mutations) on the inhibitory activities or potencies of the compounds. […]
(§4) In another case, the nuclear extract was pre-incubated with the radiolabeled probe for 30 min at 30 °C prior to incubation with increasing concentration of H182 at room temperature for 30 min and subjecting to EMSA analysis. Bands corresponding to Stats DNA- binding activities were scanned and quantified using ImageJ and plotted as a percentage of control (vehicle) against the concentration of the inhibitor, from which the IC50 values were derived . […]
(§5) These studies were performed as previously reported using the v-Src -transformed NIH3T3/v-Src fibroblasts [1 -5] . […] Luciferase activity was normalized to total protein concentration of cell lysate, which was determined by Bradford assay (Bio-Rad, Hercules, CA) . […]

pYStat3C542S = biological target: T2, pYStat3C542S (Homo sapiens, UniProt P40763, C542S); assay: EMSA with purified mutant pYStat3C542S; format: biochemical; details: 3 μM H182, 30 min
T2 construct: made in house; host or cells: E. coli BL21(DE3) TKB1 (inducible tyrosine kinase)
T2 sequence (P40763 127-711 C542S): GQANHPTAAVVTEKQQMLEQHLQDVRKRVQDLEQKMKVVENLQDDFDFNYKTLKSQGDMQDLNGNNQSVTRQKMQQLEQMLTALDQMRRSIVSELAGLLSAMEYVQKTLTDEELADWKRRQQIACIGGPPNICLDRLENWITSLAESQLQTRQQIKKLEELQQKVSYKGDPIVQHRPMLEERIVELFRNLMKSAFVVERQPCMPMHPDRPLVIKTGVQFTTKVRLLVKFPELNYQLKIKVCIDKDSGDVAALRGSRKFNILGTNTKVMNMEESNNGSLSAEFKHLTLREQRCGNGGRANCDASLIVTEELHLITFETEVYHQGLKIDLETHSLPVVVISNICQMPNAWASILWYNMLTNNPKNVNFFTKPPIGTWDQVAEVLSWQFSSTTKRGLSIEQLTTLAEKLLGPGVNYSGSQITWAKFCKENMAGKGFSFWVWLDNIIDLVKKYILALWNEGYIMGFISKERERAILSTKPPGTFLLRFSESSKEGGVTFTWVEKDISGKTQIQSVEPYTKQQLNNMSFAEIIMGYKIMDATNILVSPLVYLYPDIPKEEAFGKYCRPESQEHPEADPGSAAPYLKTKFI
Text: as §1, §2, §3, §4, §5

[1] = biological target: T3, norepinephrine transporter (NET) (Homo sapiens, UniProt P23975); assay: CEREP SafetyScreen44, norepinephrine transporter; format: binding
T3 construct: Eurofins-CEREP (SafetyScreen44 panel)
T3 sequence (P23975 whole entry): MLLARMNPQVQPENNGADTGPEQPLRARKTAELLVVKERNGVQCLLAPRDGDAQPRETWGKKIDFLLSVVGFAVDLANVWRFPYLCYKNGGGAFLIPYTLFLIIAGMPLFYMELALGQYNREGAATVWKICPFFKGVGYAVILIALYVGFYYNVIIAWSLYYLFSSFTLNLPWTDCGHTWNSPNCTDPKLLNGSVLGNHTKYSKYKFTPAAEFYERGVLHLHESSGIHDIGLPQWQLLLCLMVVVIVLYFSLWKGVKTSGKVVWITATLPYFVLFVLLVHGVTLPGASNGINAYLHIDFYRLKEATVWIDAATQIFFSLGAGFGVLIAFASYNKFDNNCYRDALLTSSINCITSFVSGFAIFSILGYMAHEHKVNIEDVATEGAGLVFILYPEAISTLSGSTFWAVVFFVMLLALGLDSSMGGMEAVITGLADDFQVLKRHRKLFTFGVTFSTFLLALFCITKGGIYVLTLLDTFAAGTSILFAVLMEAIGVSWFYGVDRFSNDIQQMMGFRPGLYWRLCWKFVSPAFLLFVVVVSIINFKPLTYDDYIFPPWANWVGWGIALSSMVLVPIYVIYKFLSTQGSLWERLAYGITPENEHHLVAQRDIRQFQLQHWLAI

Stat3 = Stat3 (Homo sapiens, UniProt P40763); assay: Stat3 activity and target gene expression in extracted tumor tissues; format: in vivo, mouse; design: Tissue lysates of equal total protein prepared from the extracted tumors; from tissue; host or cells: extracted tumour tissue from treated and untreated mice
Sequence of Stat3 (P40763 2-770 limits assumed): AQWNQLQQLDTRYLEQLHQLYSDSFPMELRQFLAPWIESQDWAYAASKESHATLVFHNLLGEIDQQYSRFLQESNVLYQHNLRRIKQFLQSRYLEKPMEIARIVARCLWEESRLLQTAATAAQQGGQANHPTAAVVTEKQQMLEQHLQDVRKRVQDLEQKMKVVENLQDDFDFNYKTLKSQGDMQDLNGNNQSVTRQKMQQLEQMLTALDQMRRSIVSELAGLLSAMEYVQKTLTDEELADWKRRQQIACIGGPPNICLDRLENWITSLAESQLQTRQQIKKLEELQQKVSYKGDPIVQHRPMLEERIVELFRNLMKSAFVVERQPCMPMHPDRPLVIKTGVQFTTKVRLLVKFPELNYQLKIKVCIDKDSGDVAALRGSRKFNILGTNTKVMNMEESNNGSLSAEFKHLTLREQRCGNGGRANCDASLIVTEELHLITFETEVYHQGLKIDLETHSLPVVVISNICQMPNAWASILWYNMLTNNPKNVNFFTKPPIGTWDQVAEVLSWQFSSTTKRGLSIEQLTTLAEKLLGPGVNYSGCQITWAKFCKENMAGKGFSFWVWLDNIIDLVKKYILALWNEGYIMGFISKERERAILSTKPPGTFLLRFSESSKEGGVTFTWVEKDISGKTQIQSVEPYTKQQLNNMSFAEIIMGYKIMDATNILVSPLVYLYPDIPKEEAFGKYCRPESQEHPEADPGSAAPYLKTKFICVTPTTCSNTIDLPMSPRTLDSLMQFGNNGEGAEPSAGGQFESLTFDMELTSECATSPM
Experimental: We then profiled tumor tissues for Stat3 activity and Stat3 target gene expression as pharmacodynamic markers of therapeutic response. Tissue lysates of equal total protein prepared from the extracted tumors were subjected to Stat3 DNA-binding assay/EMSA analysis or SDS-PAGE and immunoblotting analysis.
These studies were performed as previously described [1 -3] . Briefly, snap-frozen tumor tissues or cultured cells treated or not were harvested and whole-cell or tissue lysates were prepared in radioimmunoprecipitation assay (RIPA) buffer. Samples of equal total protein were subjected to SDS - PAGE and immunoblotting analysis. Primary antibodies used were anti- Stat3, pY705-Stat3, pS727Stat3, […]
Akt, pT202/Y204Erk1/2 (p44/42), Erk1/2, PARP , caspase 3, c-Myc, survivin, VEGF, β-actin, α/β-tubulin, and GAPDH. For the studies of the effects of cell density and confluence on pY705Stat3, cells were seeded […] in culture dishes. The next day, cells were untreated (DMSO control, […]
concentration of H182 for 6 h and then treated with 0- 100 nM docetaxel or 0-20 µM cisplatin for a total of 72 h. Viable cell numbers were assessed by a CyQuant cell proliferation kit according to the manufacturer’s instructions (Thermo/Life Technologies Corp, Carlsbad, CA). […]

T1 sequence (P40763 127-711 C328A): as the sequence (P40763 127-711 C542S) above, with C202A, S416C counted along it

With O=C([C@H]1CCN1S(=O)(=O)c1c(F)c(F)c(F)c(F)c1F)N(Cc1ccc(C2CCCCC2)cn1)c1ccc2c(=O)[nH]ncc2c1 [Compound H182] the “Effect on DNA-binding activity of pYStat3C328A” value (pYStat3C328A) was “strong inhibition”, the “Effect on DNA-binding activity of pYStat3C542S” value (pYStat3C542S) was “strong inhibition” and the inhibition at 10 µM ([1]; 10 μM H182) was > 80%. The IC50 ([1]; SafetyScreen44 follow-up dose-response) was 400 nM, the “Stat3 DNA-binding activity in tumor tissues” value (Stat3; EMSA of tumor tissue lysates, treated vs untreated control) was “suppressed Stat3 DNA-binding activity in tumor tissues” and the “Expression of c-Myc, VEGF, and survivin in tumor tissues” value (Stat3; immunoblotting of tumor tissue lysates) was “suppression of the expression of Stat3 downstream genes”.

Reference: paper PMC9867837 (Cancer letters, 2022)
